Data: US20250382346A1, “NEURONAL PROMOTERS AND USES THEREOF” (priority 2023, published 2025)

Target: T1, rM3Ds (Rattus norvegicus, UniProt P08483, A177S/A238G/A489L/DEL261-437/DEL441-478/E258S/I253V/I483M/INS256[…]/K178L/K182A/K255R/K484R/K486H/L173F/L482A/M480V/R171S/R176Q/R179M/S481M/T174R/T181R/T257A/Y148C)
T1 sequence (P08483 with tags, fused parts or gaps Y148C/R171S/L173F/T174R/R176Q/A177S/K178L/R179M/T181R/K182A/A238G/I253V/K255R/INS256[…]/T257A/E258S/DEL261-437/DEL441-478/M480V/S481M/L482A/I483M/K484R/K486H/A489L): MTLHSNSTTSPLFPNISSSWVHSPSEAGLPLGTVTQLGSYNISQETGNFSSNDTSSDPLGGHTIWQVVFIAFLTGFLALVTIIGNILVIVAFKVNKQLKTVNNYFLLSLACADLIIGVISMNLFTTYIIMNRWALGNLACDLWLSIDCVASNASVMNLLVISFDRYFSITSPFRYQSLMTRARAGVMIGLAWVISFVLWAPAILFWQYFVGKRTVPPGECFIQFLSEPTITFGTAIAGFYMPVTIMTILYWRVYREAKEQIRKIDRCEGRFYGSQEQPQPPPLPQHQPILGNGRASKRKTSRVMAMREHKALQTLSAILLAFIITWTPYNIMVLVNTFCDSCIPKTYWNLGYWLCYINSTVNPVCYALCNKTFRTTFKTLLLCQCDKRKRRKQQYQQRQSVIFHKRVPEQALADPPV
Assay: Striatal slice whole-cell recordings of retrogradely labeled D1-MSNs, rM3Ds
Type: cell-based, mice
Design: 2A-EYFP (C); expressed in transfected cells; host or cells: neurons (striatal D1-MSNs) of mice or cynomolgus macaques, transduced in vivo by nigral AAV8R12-G88P7-rM3Ds-2A-EYFP
Conditions: AAV8R12-G88P7-rM3Ds-2A-EYFP; CNO 10 μM; basal firing rate and resting membrane potential unaffected
Excerpt: Mice from different groups were anesthetized with […] isoflurane, and then decapitated. The brain was quickly extracted and placed in ice-cold N-methyl-D-glucamine (NMDG) cutting solution containing (in mM): 92 NMDG, 2.5 KCl, 25 NaHCO3, 1.25 NaH2PO4, 4.5 D-Glucose, 20 HEPES, 5 L-ascorbic acid, 3 Na-pyruvate, 2 Thiourea, 10 MgSO4, 0.5 CaCl2). The pH was adjusted to 7.2±0.1 using HCl and the osmolarity was adjusted to 305±5 mosmol/L using NMDG. The solution was bubbled with 95% O2/5% CO2 prior to use. Coronal striatum slices were cut in 250-[…]m thickness with a vibratome slicer (Leica, VT1200 S), and then incubated in artificial cerebrospinal fluid (aCSF) saturated with 95% O2/5% CO2 for at least 45 min at 37° C. before recording. The aCSF contains (in mM) 125 NaCl, 1.25 KCl, 25 NaHCO3, 1.25 KH2PO4, 25 D-Glucose, 2 CaCl2) and 1 MgCl2, supplemented with 2 mM Na-pyruvate, 3 mM Myo-inositol and 0.4 mM L-ascorbic acid.
The acute striatum slice was transferred to the recording chamber with a constant perfusion of oxygenized aCSF at the rate of 3 ml/min. Neurons were visualized using an upright microscope (Olympus, BX-51) with a 40× water immersion objective at room temperature (˜25° C.). […] Neurons were quickly visualized under fluorescence microscope and then patch clamp were achieved under infrared light illumination and CCD camera. […]

C[N+]1([O-])CCN(C2=Nc3cc(Cl)ccc3Nc3ccccc32)CC1 [CNO, Clozapine-N-oxide]
excitability of labeled striatal MSNs upon CNO: enhancement in the excitability
